From ChEMBL document CHEMBL4130349, “Discovery and structure-activity relationship studies of 2-benzylidene-2,3-dihydro-1H-inden-1-one and benzofuran-3(2H)-one derivatives as a novel class of potential therapeutics for inflammatory bowel disease” (Eur J Med Chem, 2017)
Active and inactive are the calls of the source. The rule behind the calls is not given here.

Columns and labels:
[1] = tested on: HT-29; test: Inhibition of TNF-alpha-induced adhesion of BCECF-labeled human U937 cells to human HT-29 cells at 10 uM preincubated for 1 hr followed by TNF-alpha challenge measured after 3 hrs by fluorescence microscopic method relative to control; format: functional
[2] = tested on: HT-29; test: Inhibition of TNF-alpha-induced ICAM-1 expression in human HT-29 cells at 10 uM preincubated for 1 hr followed by TNF-alpha challenge measured after 3 hrs by Western blot analysis; format: functional, cell-based
[3] = tested on: HT-29; test: Inhibition of TNF-alpha-induced adhesion of BCECF-labeled human U937 cells to human HT-29 cells preincubated for 1 hr followed by TNF-alpha challenge measured after 3 hrs by fluorescence microscopic method; format: functional, cell-based
[4] = tested on: HT-29; test: Inhibition of TNF-alpha-induced NFkappa-B transcriptional activity in human HT-29 cells at 10 uM preincubated for 1 hr followed by TNF-alpha challenge measured after 3 hrs by dual luciferase reporter gene assay; format: functional, cell-based
[5] = tested on: HT-29; test: Inhibition of TNF-alpha-induced ROS production in human HT-29 cells at 10 uM preincubated for 1 hr followed by TNF-alpha challenge measured after 30 mins by DCF-DA dye-based fluorescence microscopy; format: functional, cell-based
[6] = tested on: HT-29; test: Inhibition of TNF-alpha-induced MCP-1 expression in human HT-29 cells at 10 uM preincubated for 1 hr followed by TNF-alpha challenge measured after 3 hrs by Western blot analysis; format: functional, cell-based
[7] = tested on: Rattus norvegicus; test: Antiinflammatory activity in po dosed TNBS-induced Sprague-Dawley rat colitis model assessed as recovery in body weight decrease administered once a day for 5 days measured on day 6; format: functional, organism-based
[8] = tested on: Rattus norvegicus; test: Antiinflammatory activity in po dosed TNBS-induced Sprague-Dawley rat colitis model assessed as decrease in MPO levels in colon tissue administered once per day for 5 days measured on day 6; format: functional, organism-based
[9] = tested on: HT-29; test: Inhibition of LPS-induced TNF-alpha expression in human HT-29 cells at 10 uM preincubated for 1 hr followed by TNF-alpha challenge measured after 3 hrs by Western blot method; format: functional, cell-based
[10] = tested on: Rattus norvegicus; test: Antiinflammatory activity in po dosed TNBS-induced Sprague-Dawley rat colitis model assessed as recovery of colon tissue edematous inflammation administered once a day for 5 days measured on day 6; format: functional, organism-based
[11] = tested on: HT-29; test: Inhibition of TNF-alpha-induced MCP-1 expression in human HT-29 cells preincubated for 1 hr followed by TNF-alpha challenge measured after 3 hrs by Western blot analysis; format: functional, cell-based
[12] = tested on: HT-29; test: Potency index, ratio of 5-ASA IC50 to test compound IC50 for inhibition of TNF-alpha-induced adhesion of BCECF-labeled human U937 cells to human HT-29 cells; format: functional
[13] = tested on: HT-29; test: Inhibition of LPS-induced TNF-alpha expression in human HT-29 cells preincubated for 1 hr followed by TNF-alpha challenge measured after 3 hrs by Western blot method; format: functional, cell-based
[14] = tested on: HT-29; test: Inhibition of TNF-alpha-induced AP-1 transcriptional activity in human HT-29 cells at 10 uM preincubated for 1 hr followed by TNF-alpha challenge measured after 3 hrs by dual luciferase reporter gene assay; format: functional, cell-based
[15] = tested on: HT-29; test: Inhibition of TNF-alpha-induced ROS production in human HT-29 cells preincubated for 1 hr followed by TNF-alpha challenge measured after 30 mins by DCF-DA dye-based fluorescence microscopy; format: functional, cell-based
[16] = tested on: HT-29; test: Inhibition of TNF-alpha-induced ICAM-1 expression in human HT-29 cells preincubated for 1 hr followed by TNF-alpha challenge measured after 3 hrs by Western blot analysis; format: functional, cell-based
[17] = tested on: HT-29; test: Inhibition of LPS-induced TNF-alpha expression in human HT-29 cells at […] preincubated for 1 hr followed by TNF-alpha challenge measured after 3 hrs by Western blot method; format: functional, cell-based
[18] = tested on: HT-29; test: Inhibition of TNF-alpha-induced adhesion of BCECF-labeled human U937 cells to human HT-29 cells at […] preincubated for 1 hr followed by TNF-alpha challenge measured after 3 hrs by fluorescence microscopic method relative to control; format: functional
[19] = tested on: Rattus norvegicus; test: Antiinflammatory activity in TNBS-induced Sprague-Dawley rat colitis model assessed as recovery in body weight decrease at 300 mg/kg, po qd administered for 5 days measured on day 6; format: functional, organism-based
[20] = tested on: Rattus norvegicus; test: Antiinflammatory activity in TNBS-induced Sprague-Dawley rat colitis model assessed as recovery of colon tissue edematous inflammation at 300 mg/kg, po qd administered for 5 days measured on day 6; format: functional, organism-based
[21] = tested on: HT-29; test: Inhibition of TNF-alpha-induced ROS production in human HT-29 cells at 100 uM preincubated for 1 hr followed by TNF-alpha challenge measured after 30 mins by DCF-DA dye-based fluorescence microscopy; format: functional, cell-based

O=C1/C(=C/c2ccc(O)cc2)Cc2cccc(O)c21
inhibition at 10 µM [1]: 69.8%

O=C1/C(=C/c2cccc(Cl)c2)Cc2ccccc21
inhibition at 10 µM [1]: -2.1%

O=C1/C(=C/c2ccc(Cl)cc2)Cc2cccc(O)c21
inhibition [2]: Active | inhibition at 10 µM [1]: 78.4% | IC50 [3]: 1.64 µM | inhibition [4]: Active | inhibition [5]: Active | inhibition [6]: Active

O=C1/C(=C/c2ccccc2Cl)Oc2ccccc21
inhibition at 10 µM [1]: 50.7%

O=C1/C(=C/c2ccccc2O)Oc2ccccc21
inhibition [2]: Active | inhibition at 10 µM [1]: 85.6% | IC50 [3]: 0.95 µM | inhibition [4]: Active | inhibition [5]: Active | inhibition [6]: Active

O=C1/C(=C/c2ccc(Cl)cc2)Oc2ccccc21
inhibition at 10 µM [1]: 68.7%

O=C1/C(=C/c2cccc(F)c2)Cc2ccccc21
inhibition at 10 µM [1]: 22.1%

O=C1/C(=C/c2ccc(O)cc2)Oc2cc(O)ccc21
Activity [7]: Dose-dependent effect | inhibition at 10 µM [1]: 80.3% | inhibition [8]: Dose-dependent effect | IC50 [3]: 0.5 µM | inhibition [3]: Dose-dependent effect | inhibition [9]: Active | Activity [10]: Dose-dependent effect | inhibition [4]: Active | inhibition [11]: Dose-dependent effect | Ratio IC50 [12]: 40000 | inhibition [13]: Dose-dependent effect | inhibition [14]: Active | inhibition [15]: Active | inhibition [16]: Dose-dependent effect

O=C1/C(=C/c2cccc(OC(F)(F)F)c2)Cc2ccccc21
inhibition at 10 µM [1]: 9.9%

COc1ccc(/C=C2\Cc3c(O)cccc3C2=O)cc1O
inhibition at 10 µM [1]: 0.1%

O=C1/C(=C/c2cccc(Cl)c2)Oc2ccccc21
inhibition at 10 µM [1]: 40%

O=C1/C(=C/c2ccc(O)cc2)Cc2cc(O)ccc21
inhibition at 10 µM [1]: 45.4%

Nc1ccc(O)c(C(=O)O)c1 [MESALAMINE]
inhibition at 10 µM [1]: 3.7% | IC50 [3]: 20400 µM | inhibition [9]: inactive | inhibition [17]: Active | inhibition [18]: 52.8%

O=C1/C(=C/c2ccc(O)cc2)Oc2ccccc21
inhibition at 10 µM [1]: 63.6%

O=C1/C(=C/c2cccc([N+](=O)[O-])c2)Cc2ccccc21
inhibition at 10 µM [1]: 46.5%

O=C1/C(=C/c2ccccc2O)Cc2ccccc21
inhibition at 10 µM [1]: 63.1%

O=C1/C(=C/c2cccc(O)c2)Cc2ccc(O)cc21
inhibition at 10 µM [1]: 62.7%

O=C1/C(=C/c2ccc(OC(F)(F)F)cc2)Cc2ccccc21
inhibition at 10 µM [1]: 34.5%

O=C1/C(=C/c2ccccc2O)Cc2c(O)cccc21
inhibition at 10 µM [1]: 30.3%

O=C1/C(=C/c2ccccc2O)Oc2cc(O)ccc21
inhibition at 10 µM [1]: 53.5%

O=C1/C(=C/c2ccccc2O)Cc2ccc(O)cc21
inhibition [2]: Active | inhibition at 10 µM [1]: 71.3% | IC50 [3]: 2.29 µM | inhibition [4]: Active | inhibition [5]: Active | inhibition [6]: Active

O=C1/C(=C/c2cccc(O)c2)Cc2cccc(O)c21
inhibition at 10 µM [1]: 60.5%

O=C1/C(=C/c2ccc(Cl)o2)Cc2ccccc21
inhibition at 10 µM [1]: -8.9%

COc1ccc(/C=C2\Cc3ccc(O)cc3C2=O)cc1O
inhibition at 10 µM [1]: 12%

O=C1/C(=C/c2ccc(O)cc2)Cc2ccc(O)cc21
inhibition [2]: Active | inhibition at 10 µM [1]: 80.3% | IC50 [3]: 0.83 µM | inhibition [9]: Active | inhibition [4]: Active | inhibition [5]: Active | inhibition [6]: Active | inhibition [14]: Active

O=C1/C(=C/c2ccc(Cl)cc2)Cc2cc(O)ccc21
inhibition at 10 µM [1]: 0.2%

O=C1/C(=C/c2ccc(Cl)cc2)Oc2cc(O)ccc21 [6-HYDROXY-4'-CHLORO AURONE]
inhibition at 10 µM [1]: 49%

O=C1/C(=C/c2ccc(Cl)s2)Oc2ccccc21
inhibition [2]: Active | inhibition at 10 µM [1]: 75.1% | IC50 [3]: 3.72 µM | inhibition [4]: Active | inhibition [5]: Active | inhibition [6]: Active

O=C1/C(=C/c2ccc(Cl)o2)Oc2ccccc21
inhibition at 10 µM [1]: 62.2%

O=C1/C(=C/c2cccc(O)c2)Oc2ccccc21
inhibition [2]: Active | inhibition at 10 µM [1]: 75.4% | IC50 [3]: 3.17 µM | inhibition [4]: Active | inhibition [5]: Active | inhibition [6]: Active

O=C1/C(=C/c2cccc(O)c2)Oc2cc(O)ccc21
inhibition [2]: Active | inhibition at 10 µM [1]: 75.7% | IC50 [3]: 1.68 µM | inhibition [4]: Active | inhibition [5]: Active | inhibition [6]: Active

O=C1/C(=C/c2ccc(Cl)cc2)Cc2c(O)cccc21
inhibition at 10 µM [1]: 10.6%

O=C(O)c1cc(/N=N/c2ccc(S(=O)(=O)Nc3ccccn3)cc2)ccc1O
inhibition [19]: Active | inhibition [20]: Active

O=C1/C(=C/c2ccccc2O)Cc2cccc(O)c21
inhibition at 10 µM [1]: 67.9%

O=C1/C(=C/c2cccnc2)Cc2ccccc21
inhibition at 10 µM [1]: 28.7%

O=C1/C(=C/c2cccc(O)c2)Cc2cc(O)ccc21
inhibition at 10 µM [1]: 50.2%

O=C1/C(=C/c2cccc(O)c2)Cc2ccccc21
inhibition at 10 µM [1]: 43.7%

O=C1/C(=C/c2ccc(Cl)cc2)Cc2ccccc21
inhibition at 10 µM [1]: -6.1%

O=C1/C(=C/c2cccc(C(F)(F)F)c2)Cc2ccccc21
inhibition at 10 µM [1]: 54.9%

O=C1/C(=C/c2ccc(F)cc2)Cc2ccccc21
inhibition at 10 µM [1]: 7.1%

O=C1/C(=C/c2cccc(-c3ccccc3)c2)Cc2ccccc21
inhibition at 10 µM [1]: 33.4%

COc1ccc(/C=C2\Cc3cc(O)ccc3C2=O)cc1O
inhibition at 10 µM [1]: -2.5%

O=C1/C(=C/c2ccccc2O)Cc2cc(O)ccc21
inhibition at 10 µM [1]: 32.1%

O=C1/C(=C/c2ccccc2)Cc2ccccc21
inhibition at 10 µM [1]: 55.3% | IC50 [3]: 5.75 µM | inhibition [4]: Active | inhibition [6]: Active

O=C1/C(=C/c2cccc(Cl)c2)Oc2cc(O)ccc21
inhibition at 10 µM [1]: 45.9%

O=C1/C(=C/c2cccc(O)c2)Cc2c(O)cccc21
inhibition at 10 µM [1]: 6.1%

O=C1/C(=C/c2ccc(O)cc2)Cc2c(O)cccc21
inhibition at 10 µM [1]: -1.7%

O=C1/C(=C/c2ccccc2Cl)Oc2cc(O)ccc21
inhibition at 10 µM [1]: 45.5%

O=C1/C(=C/c2ccc(-c3ccccc3)cc2)Cc2ccccc21
inhibition at 10 µM [1]: 62.6%

O=C1/C(=C/c2ccccc2C(F)(F)F)Cc2ccccc21
inhibition at 10 µM [1]: 42.8%

O=C1/C(=C/c2ccc(O)cc2)Cc2ccccc21
inhibition [2]: Active | inhibition at 10 µM [1]: 72.6% | IC50 [3]: 1.53 µM | inhibition [4]: Active | inhibition [5]: Active | inhibition [6]: Active

O=C1/C(=C/c2ccccc2F)Cc2ccccc21
inhibition at 10 µM [1]: 27.8%

O=C1/C(=C/c2ccccc2Cl)Cc2ccccc21
inhibition at 10 µM [1]: -4.3%

O=C1/C(=C/c2ccccc2OC(F)(F)F)Cc2ccccc21
inhibition at 10 µM [1]: 3.4%

O=C1/C(=C/c2ccccn2)Cc2ccccc21
inhibition at 10 µM [1]: 21.9%

COc1cc(C(C)=O)ccc1O
inhibition [21]: Active

COc1ccc(/C=C2\Cc3cccc(O)c3C2=O)cc1O
inhibition at 10 µM [1]: 35%

O=C1/C(=C/c2ccc(Cl)cc2)Cc2ccc(O)cc21
inhibition at 10 µM [1]: 67.9%

O=C1/C(=C/c2ccc(C(F)(F)F)cc2)Cc2ccccc21
inhibition at 10 µM [1]: 22.5%

O=C1/C(=C/c2ccc(Cl)s2)Cc2ccccc21
inhibition at 10 µM [1]: 5.7%
